Results from patent US20040147494A1, “Use” (priority 2001, published 2004).

Molecular target: T1, 11 β-HSD type 1 (Rattus norvegicus, UniProt P16232)
T1 construct: Both the kidneys and livers were homogenised on ice in PBS- sucrose buffer; tissue Harlan Olac, Bicester, Oxon, UK (rats); host or cells: rat liver homogenate supernatant (Wistar rat)
Experiment: biochemical
Format: biochemical
Details: rat liver cytosol 25 μL, 90 min, 37° C., cortisone (E) to cortisol (F), vs control without inhibitor, means n=2; for inhibition at 10 µM: read-out: % […]→F ± SD, inhibitor 10 μM, read-out: % INHIBITION E→F ± SD; for % INHIBITION E→F ± SD: inhibitor 10 μM

T1 sequence (P16232 whole entry): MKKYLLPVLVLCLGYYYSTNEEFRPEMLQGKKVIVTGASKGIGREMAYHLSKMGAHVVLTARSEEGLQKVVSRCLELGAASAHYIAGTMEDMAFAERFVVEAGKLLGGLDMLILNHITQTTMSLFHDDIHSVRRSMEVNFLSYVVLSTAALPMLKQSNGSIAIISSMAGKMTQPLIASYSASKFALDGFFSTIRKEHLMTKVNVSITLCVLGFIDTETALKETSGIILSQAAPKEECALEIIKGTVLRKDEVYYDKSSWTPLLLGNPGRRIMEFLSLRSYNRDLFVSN

| SMILES | inhibition at 10 µM [%] | % INHIBITION E→F ± SD [%] | % INHIBITION E→F ± SD (10 µM) [%] |
| --- | --- | --- | --- |
| CC1(C)[C@@H](O)CC[C@]2(C)[C@H]3C(=O)C=C4[C@@H]5C[C@@](C)(C(=O)O)CC[C@]5(C)CC[C@@]4(C)[C@]3(C)CC[C@@H]12 [STX352, 3β-Hydroxy-11-oxo-18β,20β-olean-12-en-29-oic acid, reference compound] | 85.2 ± 3.69 | – | – |
| CC1(C)C(=O)CC[C@@]2(C)C1CC[C@]1(C)C2C(=O)C=C2[C@@H]3C[C@@](C)(C(=O)O)CC[C@]3(C)CC[C@]21C (stereo partly drawn) [STX 347, 3-Oxo-18β-glycerrhetinic acid] | 89.37 ± 0.1 | – | – |
| CC(=O)C1CCC2C3CCC4=CC(=O)CC[C@]4(C)C3[C@H](O)C[C@]12C (some centres unmarked) [DG322B, 11-hydroxy-Progesterone] | 32.6 ± 3.75 | – | – |
| CC1(C)[C@@H](O)CC[C@]2(C)[C@H]3C(=O)C=C4[C@@H]5C[C@@](C)(C(=O)OCCc6ccccc6)CC[C@]5(C)CC[C@@]4(C)[C@]3(C)CC[C@@H]12 [STX197, 3β-hydroxy-11-oxo-18β-glycyrrhetinic acid phenylethyl ester] | – | 53.0 ± 0.935 | – |
| CC1(C)C(=O)CC[C@]2(C)C3C(=O)C=C4[C@H]5C[C@@](C)(C(=O)O)CC[C@]5(C)CC[C@@]4(C)[C@]3(C)CC[C@@H]12 (stereo partly drawn) [BLE99005, 3,11-Dioxo-18α-olean-12-en-30-oic acid] | 87 | – | 86.9 ± 0.882 |
| CC1(C)C2CC[C@]3(C)[C@H](C(=O)C=C4[C@@H]5C[C@@](C)(C(=O)NCc6ccccc6)CC[C@]5(C)CC[C@]43C)[C@@]2(C)CC[C@@H]1O (stereo partly drawn) [STX 366, 18β-Glycyrrhetinic Acid Benzylamide] | 85.2 ± 1.09 | – | – |
| CC1(C)[C@@H](O)CC[C@]2(C)[C@H]3C(=O)C=C4[C@H]5C[C@@](C)(C(=O)O)CC[C@]5(C)CC[C@@]4(C)[C@]3(C)CC[C@@H]12 [STX353, 3β-Hydroxy-11-oxo-18α,20β-olean-12-en-29-oic acid, reference compound] | 89 ± 1.49 | – | – |
